Measured values from the NIST ThermoML archive (doi:10.1021/je900478c).

Experiments:
[1] = 101 kPa, Liquid; for viscosity: Capillary tube (Ostwald / Ubbelohde) method
[2] = refractive index (Na D-line) (dimensionless); details: 101.33 kPa, Liquid, Standard Abbe refractometry
[3] = xn = mol fraction of the nth substance listed; details: 101 kPa, Liquid, x2 = 0; for viscosity: Capillary tube (Ostwald / Ubbelohde) method
[4] = refractive index (Na D-line) (dimensionless); xn = mol fraction of the nth substance listed; details: 101 kPa, Liquid, Standard Abbe refractometry, x2 = 0

CCCCOCCO [2-butoxyethan-1-ol]
Details | mass density, [1] [kg/m3] | refractive index, [2] | viscosity, [1] [mPa·s]
283.15 K | 909.49 | 1.4226 | 4.46
293.15 K | 901.18 | 1.4196 | 3.288
303.15 K | 892.68 | 1.4157 | 2.499
313.15 K | 884.21 | 1.41139 | 1.946
323.15 K | 875.6 | 1.40701 | 1.543

O [water] + CCCCOCCO
Details | mass density, [3] [kg/m3] | refractive index, [4] | viscosity, [3] [mPa·s]
283.15 K | 999.7 | 1.33369 | 1.309
293.15 K | – | 1.33299 | 1.003
303.15 K | – | 1.33194 | 0.7983
313.15 K | – | 1.33061 | 0.6543
323.15 K | 988.04 | 1.32904 | 0.5492

O [water] + CCCCCCOCCOCCO
Details | mass density [kg/m3]
[3], 283.15 K | 999.7

CCCCOCCOCCO [3,6-dioxa-1-decanol]
Details | refractive index, 283.15 K | refractive index, 293.15 K | refractive index, 303.15 K | refractive index, 313.15 K | refractive index, 323.15 K | viscosity, 283.15 K [mPa·s] | viscosity, 293.15 K [mPa·s] | viscosity, 303.15 K [mPa·s] | viscosity, 313.15 K [mPa·s] | viscosity, 323.15 K [mPa·s]
[1] | – | – | – | – | – | 8.301 | 5.86 | 4.323 | 3.295 | 2.58
[2] | 1.4347 | 1.4312 | 1.42805 | 1.424 | 1.4194 | – | – | – | – | –

[1], Vibrating tube method
Details | mass density [kg/m3]
283.15 K | 962.57
293.15 K | 954.16
303.15 K | 945.74
313.15 K | 937.35
323.15 K | 928.85

CCCCCCOCCOCCO [2-(2-hexyloxyethoxy)ethanol]
[1]
Details | mass density [kg/m3]
283.15 K | 942.09
288.15 K | 938.05
293.15 K | 934.06
303.15 K | 926.08
313.15 K | 918.17

O [water] + CCCCOCCOCCO
Details | refractive index, 283.15 K | refractive index, 293.15 K | refractive index, 303.15 K | refractive index, 313.15 K | refractive index, 323.15 K | viscosity, 283.15 K [mPa·s] | viscosity, 293.15 K [mPa·s] | viscosity, 303.15 K [mPa·s] | viscosity, 313.15 K [mPa·s] | viscosity, 323.15 K [mPa·s]
[3] | – | – | – | – | – | 1.309 | 1.003 | 0.7983 | 0.6543 | 0.5492
[4] | 1.33369 | 1.33299 | 1.33194 | 1.33061 | 1.32904 | – | – | – | – | –

[3], Vibrating tube method
Details | mass density [kg/m3]
283.15 K | 999.7
323.15 K | 988.04
